Measurements from US20110052776A1, “CHOCOLATE COMPOSITIONS HAVING IMPROVED FLAVOUR CHARACTERISTICS” (priority 2007, published 2011).

Assays:
expert panel members [1] = assay: Sucrose Equivalent Value (SEV) of pH 3.2 buffered sucrose solution, taste panel; format: in vivo; conditions: for SEV (%): 500 ppm of one potentiator in pH 3.2 buffered 5% sucrose solution; for effect on SEV of sucrose solutions, forms of 2,4-DHB: 500 ppm, pH 3.2 buffered solutions with 0%, 3%, 5%, 7% and 9% sucrose; for maximum sweetness attainable (SEV): pH 3.2 buffered 5% sucrose solution, dose response curve 0 to 1000 ppm; for SEV of solution containing 500 ppm 2,4-DHB and 500 ppm of a second sweetener potentiator: label = second potentiator, 5% sucrose solution
Procedure: (§1) One method of measuring the perceived sweetness of a solution is to match it with a stock sucrose solution of known concentration. In the present experiments, the compound of interest is added at a predetermined concentration to a pH 3.2 buffered solution containing 5% sucrose. A number of expert panel members then taste the solution and compare it to a battery of stock sucrose solutions ranging from 3% to 15% at increments of 1%. Each panel member decides which sucrose solution is equisweet with the solution containing the compound of interest. The mean value is then reported as the SEV. Results are reported to 1 decimal place.
In accordance with this methodology, 3-HB was added to a pH 3.2 buffered solution containing 5% sucrose to produce solutions containing from 0 to 1000 ppm 3-HB in 100 ppm increments. […] From FIG. 1 it is apparent that as the dosage of 3-HB increases so does the sweetness of the resultant solution. However the effect is non-linear with each incremental addition having a diminishing effect. The maximum sweetness attainable would appear to be about 7.9% SEV (based on a 5% sucrose solution).
The same methodology as described in Example 6 was repeated with 2,4-DHB in place of 3-HB, to produce the dose response curve for 2,4-DHB (FIG. 2). […] The maximum attainable sweetness would appear to be about 6.7% SEV (based on a 5% sucrose solution).
500 ppm of a sweetener potentiator was added to a pH 3.2 buffered solution containing 5% sucrose and the SEV of the resultant solution determined.
500 ppm of the sweetener potentiator then was added to a 5% sucrose solution containing 500 ppm 3-HB to produce a series of solutions. […] The use of 500 ppm of 3-HB alone results in an SEV of 6.9% whereas in all cases but two (2,4-DHB and 3,4-DHB) the addition of a second sweetener potentiator results in a little change or even a decrease in SEV. This is highly surprising considering that all of the potentiators are shown to have SEVs greater than 5%.
The methodology was repeated to produce a series of solutions containing 500 ppm 2,4-DHB and 500 ppm of a second sweetener potentiator.
500 ppm of 3-HB, 500 ppm of 2,4-DHB and 500 ppm of 3,4-dihydroxybenzoic acid (3,4-DHB) were added to a pH 3.2 buffered solution containing 5% sucrose and the SEV determined. The results are shown in FIG. 7 together with other combinations of 3-HB, 2,4-DHB and 3,4-DHB for comparison. The solution containing the combination of 3-HB and 2,4-DHB (hatched) has a much higher SEV (8.7%) than the combination of either 3,4-DHB and 3-HB (7.6%) or the combination of 3,4-DHB and 2,4-DHB (6.8%). The three-way combination of the embodiment (hatched) is better still with an SEV of 9.8%.
Buffered solutions of pH 3.2 were prepared containing 0%, 3%, 5%, 7% and 9% sucrose. 500 ppm of 2,4-DHB acid, 500 ppm of the sodium salt of 2,4-DHB and 500 ppm of the potassium salt of 2,4-DHB were added individually to each of the sucrose solutions. The SEV for each of the solutions was then determined.
500 ppm of 3-aminobenzoic acid and 500 ppm of 4-aminobenzoic acid were individually added to separate pH 3.2 buffered solutions containing 5% sucrose and the SEVs of the resultant solutions were determined. The SEV of 3-aminobenzoic acid was about 7%, i.e., increased the sweetness intensity of 5% sucrose to about 7%. The SEV of 4-aminobenzoic acid was about 5.5-6%, i.e., increased the sweetness intensity of 5% sucrose to about 5.5-6%.

[2] = cited from earlier work
panel member = assay: Sucrose reduction method versus 10% sucrose control, taste panel; format: in vivo; conditions: 1000 ppm used individually; control pH 3.2 10% sucrose
Procedure: An alternative method of measuring perceived sweetness is to determine how much sucrose can be replaced through the use of the compound of interest without any Perceived loss of sweetness. In the present experiments the control was a pH 3.2 buffered solution containing 10% sucrose. The compound of interest is added at a predetermined concentration to a number of sucrose solutions containing from 5% to 10% sucrose at increments of 0.5%. Each panel member tastes each of the solutions, compares it to the control sample and decides which solutions are equisweet. For example, if the 8% sucrose solution containing the compound of interest is equisweet with the control, then the sucrose reduction achieved by the compound of interest is 20%.
A series of sucrose solutions were prepared containing 3-HB and 2,4-DHB at a combined concentration of 1000 ppm. Each solution was evaluated using the sucrose reduction method described above to determine how much sucrose could be replaced without noticeable loss of sweetness.
A series of sucrose solutions were prepared containing equal quantities of 3-HB and 2,4-DHB, at a combined concentration of 200, 400, 600, 800 and 1000 ppm. Each solution was evaluated using the sucrose reduction method described in Example 8 above to determine how much sucrose could be replaced without noticeable loss of sweetness.

expert panel members [3] = assay: SEV of non-sucrose sweetener solutions (SEV about 5%) after addition of potentiators; format: in vivo; conditions: 500 ppm 3-HB alone versus with 500 ppm 2,4-DHB; pH 3.2
Procedure: as §1
The SEV of each sweetener solution was then evaluated after the addition 500 ppm of 3-HB, the addition of 500 ppm of 2,4-DHB and the addition of both 500 ppm 3-HB and 2,4-DHB.

In the case of O=C(O)c1c(O)cccc1O [2,6-dihydroxybenzoic acid (2,6-DHB), 2,6-dihydroxybenzoic acid], the “SEV (%)” value (expert panel members [1]) is reported as 5.3%.
For Nc1cccc(C(=O)O)c1 [3-aminobenzoic acid], the “SEV (%)” value (expert panel members [1]) was “about 7%”.
In the case of O=C(O)c1cccc(O)c1O [2,3-dihydroxybenzoic acid (2,3-DHB), 2,3-dihydroxybenzoic acid], the “SEV (%)” value (expert panel members [1]) is reported as 6.3%.
For Nc1ccc(C(=O)O)cc1 [4-aminobenzoic acid], the “SEV (%)” value (expert panel members [1]) was 5.5-6%.
In the case of O=C(O)c1ccc(O)cc1O [2,4-DHB, 2,4-dihydroxybenzoic acid], the “effect on the sweetness intensity of both sucralose and aspartame” value ([2]; FIGS. 1 and 2 and Tables 1 and 2 of U.S. Pat. No. 6,461,658) is given as “slightly inhibitory effect”, the “length of time during which sucralose sweetness is perceived” value ([2]; U.S. Pat. No. 6,461,658) is given as “significantly reducing” and the “effect on sweetness of a 5% sucrose solution” value ([2]; addition of 0.2% 2,4-DHB, Canadian Patent No. 1208966) is given as “increase in sweetness”. For the same molecule, the sucrose reduction (panel member) was 15%, the SEV (expert panel members [1]; 400 ppm in pH 3.2 buffered 5% sucrose solution) was 6.5% and the “SEV (%)” value (expert panel members [1]) was 6.5%. The “effect on SEV of sucrose solutions, forms of 2,4-DHB” value (“effect on SEV of sucrose solutions” for short) (expert panel members [1]) was “enhances the sweetness of the sucrose solution in every case”, the SEV (expert panel members [1]; 1000 ppm in pH 3.2 buffered 5% sucrose solution) was 6.7% and the “maximum sweetness attainable (SEV)” value (expert panel members [1]) was “about 6.7 % SEV”.
In the case of O=C(O)c1cc(O)ccc1O [2,5-dihydroxybenzoic acid (2,5-DHB), 2,5-dihydroxybenzoic acid], the “SEV (%)” value (expert panel members [1]) is reported as 5.3%.
With O=C(O)c1ccc(O)c(O)c1O [2,3,4-trihydroxybenzoic acid (2,3,4-THB), 2,3,4-trihydroxybenzoic acid] the “SEV (%)” value (expert panel members [1]) was 5.4%.
In the case of O=C(O)c1ccccc1O [2-hydroxybenzoic acid (2-HB), 2-hydroxybenzoic acid], the “SEV (%)” value (expert panel members [1]) is reported as 5.6% and the “SEV of solution containing 500 ppm 2,4-DHB and 500 ppm of a second sweetener potentiator” value (expert panel members [1]) is reported as 6.3%.
With O=C(O)c1c(O)cc(O)cc1O [2,4,6-trihydroxybenzoic acid (2,4,6-THB), 2,4,6-trihydroxybenzoic acid] the “SEV (%)” value (expert panel members [1]) was 5.4%.
In the case of O=C(O)c1cccc(O)c1 [Example 3-HB, 3-hydroxybenzoic acid], the “effect on sweetness of saccharin solution” value (expert panel members [3]) is reported as “enhances the sweetness to a greater degree alone than in combination with 2,4-DHB”, the sucrose reduction (panel member) is reported as 25% and the “SEV (%)” value (expert panel members [1]) is reported as 6.9%. For the same molecule, the “maximum sweetness attainable (SEV)” value (expert panel members [1]) was “about 7.9 % SEV”.
With O=C(O)c1cc(O)cc(O)c1 [3,5-dihydroxybenzoic acid (3,5-DHB), 3,5-dihydroxybenzoic acid] the “SEV (%)” value (expert panel members [1]) was 5.3%.
For O=C([O-])c1ccc(O)cc1O.[K+] [potassium salt of 2,4-DHB], the “effect on SEV of sucrose solutions” value (expert panel members [1]) was “enhances the sweetness of the sucrose solution in every case”.
In the case of O=C(O)c1ccc(O)cc1 [4-hydroxybenzoic acid (4-HB), 4-hydroxybenzoic acid], the “SEV (%)” value (expert panel members [1]) is reported as 5.2% and the “SEV of solution containing 500 ppm 2,4-DHB and 500 ppm of a second sweetener potentiator” value (expert panel members [1]) is reported as 6.2%.
With O=C(O)c1ccc(O)c(O)c1 [3,4-dihydroxybenzoic acid (3,4-DHB), 3,4-dihydroxybenzoic acid] the “SEV (%)” value (expert panel members [1]) was 6.4%.
With O=C(O)c1cc(O)c(O)c(O)c1 [3,4,5-tryhydroxybenzoic acid (3,4,5-THB), 3,4,5-tryhydroxybenzoic acid] the “SEV (%)” value (expert panel members [1]) was 5.1%.
In the case of O=C([O-])c1ccc(O)cc1O.[Na+] [sodium salt of 2,4-DHB], the “effect on SEV of sucrose solutions” value (expert panel members [1]) is reported as “enhances the sweetness of the sucrose solution in every case”.
